# Test results reported in patent US8546375B2, “(3-(4-(aminomethyl)phenoxy or phenylthio)azetidin-1-yl)(5-phenyl-1,3,4-oxadiazol-2-yl)methanone compounds” (AstraZeneca AB, priority 2010, dated 2013).
# Counter-ions that a name gives are not always drawn. Like-named read-outs stand apart in the source and are kept apart here.
# Target: T1, Melanin Concentrating Hormone Receptor 1 (MCHR1) (Homo sapiens, UniProt Q99705)
# T1 construct: expressed in transfected cells
# Assay: MCHR1 Receptor Activation Assay (GTPγ^35S)
# Format: biochemical
# T1 sequence (Q99705 whole entry): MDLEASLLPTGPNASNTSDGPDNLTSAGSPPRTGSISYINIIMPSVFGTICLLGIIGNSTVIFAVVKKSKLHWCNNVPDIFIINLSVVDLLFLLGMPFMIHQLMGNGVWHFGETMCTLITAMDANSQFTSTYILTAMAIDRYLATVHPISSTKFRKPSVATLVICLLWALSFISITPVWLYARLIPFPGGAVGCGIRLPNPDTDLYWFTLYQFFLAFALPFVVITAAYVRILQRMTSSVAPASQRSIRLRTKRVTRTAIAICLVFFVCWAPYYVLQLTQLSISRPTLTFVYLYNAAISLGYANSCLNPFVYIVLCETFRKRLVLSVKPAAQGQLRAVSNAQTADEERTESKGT
SMILES,IC50 (read-out: GTPγ^35S IC50),"IC50 (when tested in the above referenced assays (MCH binding assay; MCHR1 receptor activation assay), read-out: IC50 value)"
"COCCN(C)Cc1ccc(SC2CN(C(=O)c3nnc(-c4ccccc4)o3)C2)cc1 [Example 61, (3-(4-(((2-Methoxyethyl)(methyl)amino)methyl)phenylthio)azetidin-1-yl)(5-phenyl-1,3,4-oxadiazol-2-yl)methanone hydrochloride]",0.022 µM,
"COC1CN(Cc2ccc(SC3CN(C(=O)c4nnc(-c5ccccc5)o4)C3)cc2)C1 [Example 62, (3-(4-((3-Methoxyazetidin-1-yl)methyl)phenylthio)azetidin-1-yl)(5-phenyl-1,3,4-oxadiazol-2-yl)methanone]",0.013 µM,
"CNCc1ccc(SC2CN(C(=O)c3nnc(-c4ccccc4)o3)C2)cc1 [Example 63, (3-(4-((Methylamino)methyl)phenylthio)azetidin-1-yl)(5-phenyl-1,3,4-oxadiazol-2-yl)methanone hydrochloride]",0.023 µM,
CN(Cc1ccc(SC2CN(C(=O)c3nnc(-c4ccccc4)o3)C2)cc1)C1CCOCC1 [Example 64],0.012 µM,
"CN(Cc1ccc(SC2CN(C(=O)c3nnc(-c4ccccc4)o3)C2)cc1)CC1CCOC1 (stereo not drawn) [Example 65, (3-(4-((Methyl((tetrahydrofuran-3-yl)methyl)amino)methyl)phenylthio)azetidin-1-yl)(5-phenyl-1,3,4-oxadiazol-2-yl)methanone]",0.02 µM,
"O=C(c1nnc(-c2ccccc2)o1)N1CC(Sc2ccc(CNC3CC3)cc2)C1 [Example 66, (3-(4-((Cyclopropylamino)methyl)phenylthio)azetidin-1-yl)(5-phenyl-1,3,4-oxadiazol-2-yl)methanone]",0.01 µM,
"O=C(c1nnc(-c2ccccc2)o1)N1CC(Sc2ccc(CN3CC(CO)C3)cc2)C1 [Example 67, (3-(4-((3-(Hydroxymethyl)azetidin-1-yl)methyl)phenylthio)azetidin-1-yl)(5-phenyl-1,3,4-oxadiazol-2-yl)methanone]",0.023 µM,
"O=C(c1nnc(-c2ccccc2)o1)N1CC(Oc2ccc(CN3CC(C(F)F)C3)cc2)C1 [Example 68, (3-(4-((3-(Difluoromethyl)azetidin-1-yl)methyl)phenoxy)azetidin-1-yl)(5-phenyl-1,3,4-oxadiazol-2-yl)methanone]",0.021 µM,
Cc1cc(OC2CN(C(=O)c3nnc(-c4ccccc4)o3)C2)ccc1CN1CCC(C)(CO)CC1 [Example 69],0.022 µM,
"CCC1(O)CN(Cc2ccc(OC3CN(C(=O)c4nnc(-c5ccc(OC)cc5)o4)C3)cc2)C1 [Example 70, (3-(4-((3-Ethyl-3-hydroxyazetidin-1-yl)methyl)phenoxy)azetidin-1-yl)(5-(4-methoxyphenyl)-1,3,4-oxadiazol-2-yl)methanone]",0.02 µM,
"CCC1(O)CN(Cc2ccc(OC3CN(C(=O)c4nnc(-c5ccccc5)o4)C3)cc2)C1 [Example 71, (3-(4-((3-Ethyl-3-hydroxyazetidin-1-yl)methyl)phenoxy)azetidin-1-yl)(5-phenyl-1,3,4-oxadiazol-2-yl)methanone]",0.023 µM,
"CCC1(O)CN(Cc2ccc(OC3CN(C(=O)c4nnc(-c5ccc(OC)cc5)o4)C3)c(C)c2)C1 [Example 72, (3-(4-((3-Ethyl-3-hydroxyazetidin-1-yl)methyl)-2-methylphenoxy)azetidin-1-yl)(5-(4-methoxyphenyl)-1,3,4-oxadiazol-2-yl)methanone]",0.015 µM,
"CCC1(O)CN(Cc2ccc(OC3CN(C(=O)c4nnc(-c5ccc(OC)cc5)o4)C3)cc2C)C1 [Example 73, (3-(4-((3-Ethyl-3-hydroxyazetidin-1-yl)methyl)-3-methylphenoxy)azetidin-1-yl)(5-(4-methoxyphenyl)-1,3,4-oxadiazol-2-yl)methanone]",0.014 µM,
"CCC1(O)CN(Cc2ccc(OC3CN(C(=O)c4nnc(-c5ccccc5)o4)C3)c(C)c2)C1 [Example 74, (3-(4-((3-Ethyl-3-hydroxyazetidin-1-yl)methyl)-2-methylphenoxy)azetidin-1-yl)(5-phenyl-1,3,4-oxadiazol-2-yl)methanone]",0.018 µM,
"CCC1(O)CN(Cc2ccc(OC3CN(C(=O)c4nnc(-c5ccccc5)o4)C3)cc2C)C1 [Example 75, (3-(4-((3-Ethyl-3-hydroxyazetidin-1-yl)methyl)-3-methylphenoxy)azetidin-1-yl)(5-phenyl-1,3,4-oxadiazol-2-yl)methanone]",0.017 µM,
"COc1ccc(-c2nnc(C(=O)N3CC(Oc4ccc(CN5CC(C)(O)C5)cc4)C3)o2)cc1 [Example 76, (3-(4-((3-Hydroxy-3-methylazetidin-1-yl)methyl)phenoxy)azetidin-1-yl)(5-(4-methoxyphenyl)-1,3,4-oxadiazol-2-yl)methanone]",0.023 µM,
"CC1(O)CN(Cc2ccc(OC3CN(C(=O)c4nnc(-c5ccccc5)o4)C3)cc2)C1 [Example 77, (3-(4-((3-Hydroxy-3-methylazetidin-1-yl)methyl)phenoxy)azetidin-1-yl)(5-phenyl-1,3,4-oxadiazol-2-yl)methanone]",0.04 µM,
"CC1(O)CN(Cc2ccc(OC3CN(C(=O)c4nnc(-c5ccccc5)o4)C3)c(Cl)c2)C1 [Example 78, (3-(2-Chloro-4-((3-hydroxy-3-methylazetidin-1-yl)methyl)phenoxy)azetidin-1-yl)(5-phenyl-1,3,4-oxadiazol-2-yl)methanone]",0.042 µM,

# The remaining lines, values ahead:
IC50 (read-out: GTPγ^35S IC50),"IC50 (when tested in the above referenced assays (MCH binding assay; MCHR1 receptor activation assay), read-out: IC50 value)",SMILES
0.034 µM,,"COc1ccc(-c2nnc(C(=O)N3CC(Oc4ccc(CN5CC(C)(O)C5)cc4Cl)C3)o2)cc1 [Example 79, (3-(2-Chloro-4-((3-hydroxy-3-methylazetidin-1-yl)methyl)phenoxy)azetidin-1-yl)(5-(4-methoxyphenyl)-1,3,4-oxadiazol-2-yl)methanone]"
0.023 µM,,"COc1ccc(-c2nnc(C(=O)N3CC(Oc4ccc(CN5CC(C)(O)C5)c(C)c4)C3)o2)cc1 [Example 80, (3-(4-((3-Hydroxy-3-methylazetidin-1-yl)methyl)-3-methylphenoxy)azetidin-1-yl)(5-(4-methoxyphenyl)-1,3,4-oxadiazol-2-yl)methanone]"
0.025 µM,,"COc1ccc(-c2nnc(C(=O)N3CC(Oc4ccc(CN5CCC(F)(CO)CC5)cc4)C3)o2)cc1 [Example 81, (3-(4-((4-Fluoro-4-(hydroxymethyl)piperidin-1-yl)methyl)phenoxy)azetidin-1-yl)(5-(4-methoxyphenyl)-1,3,4-oxadiazol-2-yl)methanone]"
0.022 µM,,"COc1ccc(-c2nnc(C(=O)N3CC(Oc4ccc(CN5CCC(C)(CO)CC5)c(C)c4)C3)o2)cc1 [Example 82, (3-(4-((4-(Hydroxymethyl)-4-methylpiperidin-1-yl)methyl)-3-methylphenoxy)azetidin-1-yl)(5-(4-methoxyphenyl)-1,3,4-oxadiazol-2-yl)methanone]"
0.025 µM,,"COc1ccc(-c2nnc(C(=O)N3CC(Oc4ccc(CN5CCC(C)(CO)CC5)cc4)C3)o2)cc1 [Example 83, (3-(4-((4-(Hydroxymethyl)-4-methylpiperidin-1-yl)methyl)phenoxy)azetidin-1-yl)(5-(4-methoxyphenyl)-1,3,4-oxadiazol-2-yl)methanone]"
0.017 µM,,"COc1ccc(-c2nnc(C(=O)N3CC(Oc4ccc(CN5CCC(C)(CO)C5)cc4)C3)o2)cc1 (stereo not drawn) [Example 84, (3-(4-((3-(hydroxymethyl)-3-methylpyrrolidin-1-yl)methyl)phenoxy)azetidin-1-yl)(5-(4-methoxyphenyl)-1,3,4-oxadiazol-2-yl)methanone]"
0.019 µM,,"CC1(CO)CCN(Cc2ccc(OC3CN(C(=O)c4nnc(-c5ccccc5)o4)C3)cc2)C1 (stereo not drawn) [Example 85, (3-(4-((3-(hydroxymethyl)-3-methylpyrrolidin-1-yl)methyl)phenoxy)azetidin-1-yl)(5-phenyl-1,3,4-oxadiazol-2-yl)methanone]"
0.015 µM,,"COc1ccc(-c2nnc(C(=O)N3CC(Oc4ccc(CN5CCCC(O)CC5)cc4)C3)o2)cc1 (stereo not drawn) [Example 86, (3-(4-((4-hydroxyazepan-1-yl)methyl)phenoxy)azetidin-1-yl)(5-(4-methoxyphenyl)-1,3,4-oxadiazol-2-yl)methanone]"
0.0081 µM,,"CC1(O)CCCN(Cc2ccc(OC3CN(C(=O)c4nnc(-c5ccccc5)o4)C3)cc2)CC1 (stereo not drawn) [Example 87, (3-(4-((4-hydroxy-4-methylazepan-1-yl)methyl)phenoxy)azetidin-1-yl)(5-phenyl-1,3,4-oxadiazol-2-yl)methanone]"
0.017 µM,,"COc1ccc(-c2nnc(C(=O)N3CC(Oc4ccc(CN5CCCC(C)(O)CC5)cc4)C3)o2)cc1 (stereo not drawn) [Example 88, (3-(4-((4-hydroxy-4-methylazepan-1-yl)methyl)phenoxy)azetidin-1-yl)(5-(4-methoxyphenyl)-1,3,4-oxadiazol-2-yl)methanone]"
0.022 µM,,"COc1ccc(-c2nnc(C(=O)N3CC(Oc4ccc(CN5CCC(CO)CC5)cc4)C3)o2)cc1 [Example 89, (3-(4-((4-(hydroxymethyl)piperidin-1-yl)methyl)phenoxy)azetidin-1-yl)(5-(4-methoxyphenyl)-1,3,4-oxadiazol-2-yl)methanone]"
0.016 µM,,"COc1ccc(-c2nnc(C(=O)N3CC(Oc4ccc(CN5CCC(C)(CO)C5)cc4C)C3)o2)cc1 (stereo not drawn) [Example 90, (3-(4-((3-(hydroxymethyl)-3-methylpyrrolidin-1-yl)methyl)-2-methylphenoxy)azetidin-1-yl)(5-(4-methoxyphenyl)-1,3,4-oxadiazol-2-yl)methanone]"
0.011 µM,,"COc1ccc(-c2nnc(C(=O)N3CC(Oc4ccc(CN5CCC(C)(CO)C5)c(C)c4)C3)o2)cc1 (stereo not drawn) [Example 91, (3-(4-((3-(hydroxymethyl)-3-methylpyrrolidin-1-yl)methyl)-3-methylphenoxy)azetidin-1-yl)(5-(4-methoxyphenyl)-1,3,4-oxadiazol-2-yl)methanone]"
0.015 µM,,"CCC1(CO)CCN(Cc2ccc(OC3CN(C(=O)c4nnc(-c5ccc(OC)cc5)o4)C3)cc2)CC1 [Example 92, (3-(4-((4-Ethyl-4-(hydroxymethyl)piperidin-1-yl)methyl)phenoxy)azetidin-1-yl)(5-(4-methoxyphenyl)-1,3,4-oxadiazol-2-yl)methanone]"
,≥ 0.1 µM,"Cc1cc(OC2CN(C(=O)c3nnc(-c4ccccc4)o3)C2)ccc1CN(C1CC1)C1CC1 [[3-[4-[(dicyclopropylamino)methyl]-3-methyl-phenoxy]azetidin-1-yl]-(5-phenyl-1,3,4-oxadiazol-2-yl)methanone]"
